Laboratory results taken from ChEMBL document CHEMBL4007467, “Effects of 6-paradol, an unsaturated ketone from gingers, on cytochrome P450-mediated drug metabolism” (Bioorg Med Chem Lett, 2017).

Key:
Type in all cases: ADME
Parameters in all cases: scale not given: the % may be the effect or the level left
CYP1A2 = molecular target: T1, CYP1A2 (Homo sapiens, UniProt P05177); experiment: Inhibition of CYP1A2 in human liver microsomes assessed as enzyme-mediated metabolite formation at 0.1 uM using phenacetin as substrate preincubated for 20 mins followed by substrate addition measured after 30 mins in presence of NADPH by LC-MS/MS analysis relative to control; settings: probe phenacetin, read-out: Activity
T1 sequence (P05177 whole entry): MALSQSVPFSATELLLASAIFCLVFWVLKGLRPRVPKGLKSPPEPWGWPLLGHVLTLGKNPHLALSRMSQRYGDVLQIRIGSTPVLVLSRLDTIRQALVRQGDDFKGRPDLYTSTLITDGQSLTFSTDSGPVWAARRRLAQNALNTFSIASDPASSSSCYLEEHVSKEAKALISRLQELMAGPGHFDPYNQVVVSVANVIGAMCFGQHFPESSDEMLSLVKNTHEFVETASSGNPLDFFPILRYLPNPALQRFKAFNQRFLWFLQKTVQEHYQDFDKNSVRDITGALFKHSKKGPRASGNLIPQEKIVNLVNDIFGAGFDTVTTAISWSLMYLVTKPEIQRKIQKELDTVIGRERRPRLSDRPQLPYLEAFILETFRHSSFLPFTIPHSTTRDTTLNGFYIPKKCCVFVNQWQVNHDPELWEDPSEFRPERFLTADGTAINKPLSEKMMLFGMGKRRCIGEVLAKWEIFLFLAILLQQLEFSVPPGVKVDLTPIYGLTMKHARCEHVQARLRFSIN

CYP3A4 [1] = molecular target: T2, CYP3A4 (Homo sapiens, UniProt P08684); experiment: Inhibition of CYP3A4 in human liver microsomes assessed as enzyme-mediated metabolite formation at 10 uM using testosterone as substrate preincubated for 20 mins followed by substrate addition measured after 30 mins in presence of NADPH by LC-MS/MS analysis relative to control; settings: probe testosterone, read-out: Activity
T2 sequence (P08684 whole entry): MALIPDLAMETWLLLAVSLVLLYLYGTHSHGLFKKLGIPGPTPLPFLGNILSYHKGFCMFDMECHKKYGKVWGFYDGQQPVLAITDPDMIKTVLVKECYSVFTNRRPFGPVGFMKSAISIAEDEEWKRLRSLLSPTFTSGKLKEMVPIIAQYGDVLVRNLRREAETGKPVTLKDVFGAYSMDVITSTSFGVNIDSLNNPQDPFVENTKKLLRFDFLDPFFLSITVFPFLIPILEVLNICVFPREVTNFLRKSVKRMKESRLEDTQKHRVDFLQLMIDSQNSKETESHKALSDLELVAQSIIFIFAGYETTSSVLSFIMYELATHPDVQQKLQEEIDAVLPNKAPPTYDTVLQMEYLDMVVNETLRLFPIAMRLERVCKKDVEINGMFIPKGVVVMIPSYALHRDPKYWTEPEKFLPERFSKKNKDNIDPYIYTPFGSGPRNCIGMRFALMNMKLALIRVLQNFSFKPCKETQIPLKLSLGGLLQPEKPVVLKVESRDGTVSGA

CYP3A4 [2] = molecular target: T2, CYP3A4; experiment: Inhibition of CYP3A4 in human liver microsomes assessed as enzyme-mediated metabolite formation at 30 uM using testosterone as substrate incubated for 5 mins followed by NADPH addition measured after 30 mins by LC-MS/MS analysis relative to control; settings: probe testosterone, read-out: Activity
CYP2A6 = molecular target: T3, CYP2A6 (Homo sapiens, UniProt P11509); experiment: Inhibition of CYP2A6 in human liver microsomes assessed as enzyme-mediated metabolite formation at 3 uM using coumarin as substrate preincubated for 20 mins followed by substrate addition measured after 30 mins in presence of NADPH by LC-MS/MS analysis relative to control; settings: probe coumarin, read-out: Activity
T3 sequence (P11509 whole entry): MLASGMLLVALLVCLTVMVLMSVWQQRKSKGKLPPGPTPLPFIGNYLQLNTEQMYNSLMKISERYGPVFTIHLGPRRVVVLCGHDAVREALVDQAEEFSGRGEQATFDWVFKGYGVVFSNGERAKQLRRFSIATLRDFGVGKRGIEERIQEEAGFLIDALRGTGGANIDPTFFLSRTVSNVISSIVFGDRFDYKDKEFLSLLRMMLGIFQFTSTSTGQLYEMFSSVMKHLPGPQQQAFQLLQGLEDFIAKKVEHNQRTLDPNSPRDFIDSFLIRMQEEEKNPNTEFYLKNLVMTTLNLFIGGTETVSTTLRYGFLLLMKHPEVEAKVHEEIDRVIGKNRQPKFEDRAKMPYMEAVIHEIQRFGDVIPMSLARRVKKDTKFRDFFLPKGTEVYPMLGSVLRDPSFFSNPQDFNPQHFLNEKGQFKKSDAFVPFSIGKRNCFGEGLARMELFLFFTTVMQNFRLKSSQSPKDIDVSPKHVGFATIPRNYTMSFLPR

CYP3A4 [3] = molecular target: T2, CYP3A4; experiment: Inhibition of CYP3A4 in human liver microsomes assessed as enzyme-mediated metabolite formation at 10 uM using midazolam as substrate preincubated for 20 mins followed by substrate addition measured after 30 mins in presence of NADPH by LC-MS/MS analysis relative to control; settings: probe midazolam, read-out: Activity
CYP2C9 = CYP2C9 (Homo sapiens, UniProt P11712); experiment: Inhibition of CYP2C9 in human liver microsomes assessed as enzyme-mediated metabolite formation at 0.1 uM using diclofenac as substrate preincubated for 20 mins followed by substrate addition measured after 30 mins in presence of NADPH by LC-MS/MS analysis relative to control; settings: probe diclofenac, read-out: Activity
CYP2C9, sequence (P11712 whole entry): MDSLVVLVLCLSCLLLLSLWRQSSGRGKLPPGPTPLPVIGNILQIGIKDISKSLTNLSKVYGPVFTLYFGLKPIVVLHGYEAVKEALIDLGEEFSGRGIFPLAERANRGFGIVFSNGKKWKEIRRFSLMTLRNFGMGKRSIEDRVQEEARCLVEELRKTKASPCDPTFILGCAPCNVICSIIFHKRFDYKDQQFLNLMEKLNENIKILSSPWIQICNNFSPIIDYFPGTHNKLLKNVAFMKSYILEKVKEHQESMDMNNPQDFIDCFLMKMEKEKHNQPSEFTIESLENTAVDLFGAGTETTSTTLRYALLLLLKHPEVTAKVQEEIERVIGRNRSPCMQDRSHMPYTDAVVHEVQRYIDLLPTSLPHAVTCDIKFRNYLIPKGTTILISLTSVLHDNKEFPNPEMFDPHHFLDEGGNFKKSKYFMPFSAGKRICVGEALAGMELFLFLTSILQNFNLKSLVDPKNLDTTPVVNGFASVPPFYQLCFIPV

CYP2B6 = molecular target: T4, CYP2B6 (Homo sapiens, UniProt P20813); experiment: Inhibition of CYP2B6 in human liver microsomes assessed as enzyme-mediated metabolite formation at 10 uM using bupropion as substrate incubated for 5 mins followed by NADPH addition measured after 30 mins by LC-MS/MS analysis relative to control; settings: probe bupropion, read-out: Activity
T4 sequence (P20813 whole entry): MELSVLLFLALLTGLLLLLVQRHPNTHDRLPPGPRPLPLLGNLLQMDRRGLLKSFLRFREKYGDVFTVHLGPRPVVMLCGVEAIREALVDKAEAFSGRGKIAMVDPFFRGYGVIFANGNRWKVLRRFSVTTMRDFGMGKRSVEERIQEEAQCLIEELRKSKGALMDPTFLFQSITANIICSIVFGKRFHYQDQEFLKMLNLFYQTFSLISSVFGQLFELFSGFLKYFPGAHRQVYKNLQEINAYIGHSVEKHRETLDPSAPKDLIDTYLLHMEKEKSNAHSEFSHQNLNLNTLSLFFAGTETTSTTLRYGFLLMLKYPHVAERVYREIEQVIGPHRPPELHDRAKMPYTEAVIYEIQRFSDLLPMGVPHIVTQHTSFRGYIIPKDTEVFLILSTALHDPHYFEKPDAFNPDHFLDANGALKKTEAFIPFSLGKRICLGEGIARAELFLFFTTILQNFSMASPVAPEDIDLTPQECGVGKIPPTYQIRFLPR

CYP2C8 = molecular target: T5, CYP2C8 (Homo sapiens, UniProt P10632); experiment: Inhibition of CYP2C8 in human liver microsomes assessed as enzyme-mediated metabolite formation at 0.3 uM using paclitaxel as substrate preincubated for 20 mins followed by substrate addition measured after 30 mins in presence of NADPH by LC-MS/MS analysis relative to control; settings: probe paclitaxel, read-out: Activity
T5 sequence (P10632 whole entry): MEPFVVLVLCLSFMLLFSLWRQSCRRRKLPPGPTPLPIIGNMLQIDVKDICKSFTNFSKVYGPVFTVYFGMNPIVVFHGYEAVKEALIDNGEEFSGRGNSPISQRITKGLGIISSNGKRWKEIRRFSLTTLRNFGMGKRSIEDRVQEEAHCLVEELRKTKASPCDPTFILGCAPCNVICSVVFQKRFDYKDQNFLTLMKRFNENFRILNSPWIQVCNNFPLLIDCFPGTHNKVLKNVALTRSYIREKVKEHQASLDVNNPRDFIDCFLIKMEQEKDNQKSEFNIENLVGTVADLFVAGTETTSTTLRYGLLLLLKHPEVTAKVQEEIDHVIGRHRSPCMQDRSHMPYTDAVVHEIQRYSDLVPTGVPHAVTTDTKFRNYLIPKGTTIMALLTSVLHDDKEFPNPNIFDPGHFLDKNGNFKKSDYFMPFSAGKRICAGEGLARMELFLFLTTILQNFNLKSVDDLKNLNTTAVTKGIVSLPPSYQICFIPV

An activity at 0.5 h, 0.1 µM (CYP1A2) of 97.2%, an activity at 0.5 h, 10 µM (CYP3A4 [1]) of 83.6% and an activity at 0.5 h, 30 µM (CYP3A4 [2]) of 48.6% were found for CCCCCCCC(=O)CCc1ccc(O)c(OC)c1 in this work. For the same compound, the activity at 0.5 h, 3 µM (CYP2A6) was 104%, the activity at 0.5 h, 10 µM (CYP3A4 [3]) was 110% and the activity at 0.5 h, 0.1 µM (CYP2C9) was 76%. It also gave an activity at 0.5 h, 10 µM (CYP2B6) of 53.9% and an activity at 0.5 h, 0.3 µM (CYP2C8) of 77.2%.
